Entries after “also recorded” stand apart in the source; their conditions may differ.
Columns and labels:
[1] = target: T1, MMP3 (Rattus norvegicus, UniProt P03957); test: NFF-3 fluorescence assay in C6-13 (C6-Cx43) glioma conditioned media; assay type: biochemical; settings: 50 μM and 100 μM, over six hours, relative to untreated controls
T1 construct: endogenous in cells; host or cells: C6-13 (C6 glioma clone stably expressing Cx43), conditioned serum-free medium
T1 sequence (P03957 98-475): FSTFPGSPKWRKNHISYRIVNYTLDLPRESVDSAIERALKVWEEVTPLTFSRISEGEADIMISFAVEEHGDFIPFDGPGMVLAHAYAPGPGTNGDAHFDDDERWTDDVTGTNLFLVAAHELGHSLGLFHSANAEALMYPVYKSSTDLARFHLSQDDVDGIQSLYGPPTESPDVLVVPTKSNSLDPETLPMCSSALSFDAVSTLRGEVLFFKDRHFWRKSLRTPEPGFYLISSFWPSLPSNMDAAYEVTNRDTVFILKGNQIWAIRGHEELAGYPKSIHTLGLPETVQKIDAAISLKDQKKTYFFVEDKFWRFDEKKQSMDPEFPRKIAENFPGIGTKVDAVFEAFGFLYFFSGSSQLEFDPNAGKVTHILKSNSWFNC
Experimental: Glioma Cell Culture. […] Anal Bioanal Chem 2010, 398 (1), 477-87). […] Zymography. […] SDS-PAGE/Western Blotting. Conditioned media was collected and chilled on ice. […] Proteins were pelleted by centrifugation (12 minutes, 4800 g). Proteins were suspended in SDS-PAGE loading buffer. […] NFF-3 Fluorescence Assay. […] After conditioning, the media was collected. Each experimental condition had its own control condition. […] The experiment was conducted at 37° C. […] The docking of MMP Inhibitors.
The synthesis of the MMP Inhibitors and NFF3 analysis. The leucine-tryptophan (Leu-Trp) backbone, AP-1, and AP-2 were synthesized. All synthesized compounds were analyzed by mass spectrometry (FIG. 3). The NFF-3 assay was used to determine the biological inhibition of MMP-3 activity for ilomastat and synthesized compounds, Leu-Trp, and AP-1 relative to untreated controls. […] Linear responses of MMP3 activity was robustly measured from about 30 to about 300 minutes. All compounds were tested at a concentration of 50 μM and 100 μM, and compared to determine MMP3 suppression. From FIG. 6, concentration dependent inhibition was observed.

[2] = target: T1, MMP3; test: Gelatin zymography of C6-13 conditioned media; assay type: cell-based; settings: ilomastat 0-100 uM, 0.1% gelatin
Description: (§1) Glioma Cell Culture. The C6 glioma line (American Type Culture Collection, ATCC) maintains many characteristics of GBM including cancer stem cell behavior ability to generate GBMs in rats upon injection in the brain (Grobben, B.; De Deyn, P. P.; Slegers, H., Rat C6 glioma as experimental model system for the study of glioblastoma growth and invasion. Cell Tissue Res 2002, 310 (3), 257-70; Zheng, X.; Shen, G.; Yang, X.; Liu, W., Most C6 cells are cancer stem cells: evidence from clonal and population analyses. Cancer Res 2007, 67 (8), 3691-7; and Beljebbar, A.; Dukic, S.; Amharref, N.; Manfait, M., Ex vivo and in vivo diagnosis of C6 glioblastoma development by Raman spectroscopy coupled to a microprobe. Anal Bioanal Chem 2010, 398 (1), 477-87). […] Cell Mol Neurobiol 1992, 12 (2), 163-75.) Glioma cells were maintained at 37° C., 95% air and 5% CO2 in a humidified incubator. Cells were cultivated in high glucose DMEM (4.0 g/L, ThermoFisher Scientific) containing L-glutamine (4.0 mM), antibiotics (penicillin, 100 IU/mL; streptomycin, 100 μg/mL) and 10% fetal bovine serum (FBS; Gibco). For collection of conditioned media, cells were plated in 6-well plate (200,000 cells/well) and grown to 80% confluency over the course of 3 days. […] Protein concentration was determined by BCA assay and samples suspended in SDS loading buffer (no DTT and without boiling). […]

[3] = system: C6 glioma cells; settings: ≤100 uM, propidium iodide stain, data not shown
Description: as §1

Row | Compound | Inhibition of MMP-3 activity (NFF-3 fluorescence) [1] | Loss of MMP3 activity (zymography) [2] | Cell death [3] [%]
1 | CC(C)C[C@H](N)C(=O)N[C@@H](Cc1c[nH]c2ccccc12)C(=O)O [Leu-Trp] | can act as a competitive inhibitor |  | 
2 | CNC(=O)[C@H](Cc1c[nH]c2ccccc12)NC(=O)[C@@H](CC(=O)NO)CC(C)C [Ilomastat] | perform better than Leu-Trp at inhibiting MMP-3 | concentration-dependent inhibition of secreted MMP3; also recorded: dose-dependent loss of MMP3 activity | < 1

Reference: patent US20230104690A1, “MATRIX METALLOPROTEINASE INHIBITORS (MMPIs)” (Brandon University, priority 2020, published 2023)
